ChEMBL document CHEMBL1201862, “PubChem BioAssay data set” (2004)
The source made the active and inactive calls.

Key:
INS1 = assay: INS-1E survival protection against cytokine death – cell-based, luminescence, retest, dose response (AID 449756); type: functional; conditions: Rattus norvegicus;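 also: cell death triggered by IL-1 beta plus TNF-alpha plus IFN-gamma mixture; protective hits raise ATP signal compared with cytokine alone wells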
[1] = biological target: Photoreceptor-specific nuclear receptor (Homo sapiens, UniProt Q9Y5X4); type: functional, cell-based;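 also: CHO-S cells with Gal4-NCOR and VP16-NR2E3 two-hybrid luciferase reporter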
Sequence of Photoreceptor-specific nuclear receptor (Q9Y5X4 whole entry, the tested form may be a part): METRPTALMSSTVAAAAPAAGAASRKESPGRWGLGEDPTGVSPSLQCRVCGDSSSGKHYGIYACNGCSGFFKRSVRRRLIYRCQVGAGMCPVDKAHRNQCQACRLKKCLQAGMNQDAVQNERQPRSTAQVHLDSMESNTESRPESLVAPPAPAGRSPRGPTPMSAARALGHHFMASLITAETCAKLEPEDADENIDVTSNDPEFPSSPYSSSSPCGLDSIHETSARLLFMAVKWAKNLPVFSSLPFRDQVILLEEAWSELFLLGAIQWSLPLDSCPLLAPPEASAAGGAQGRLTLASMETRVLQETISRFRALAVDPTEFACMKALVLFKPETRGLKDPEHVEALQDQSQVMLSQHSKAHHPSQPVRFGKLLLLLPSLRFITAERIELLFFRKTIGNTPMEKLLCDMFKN

Interleukin-8 = biological target: T1, Interleukin-8 (Homo sapiens, UniProt P10145); assay: Dose Response confirmation of uHTS small molecule hits for cystic fibrosis induced NFkb Inhibitors in a PAF-induced IL8 counterscreen.; type: functional; conditions: read-out: IC50_Mean
T1 sequence (P10145 whole entry): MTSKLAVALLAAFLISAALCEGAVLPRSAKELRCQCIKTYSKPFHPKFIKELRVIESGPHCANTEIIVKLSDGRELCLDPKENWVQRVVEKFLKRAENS

[2] = biological target: T2, Tyrosine-protein phosphatase non-receptor type 22 (Homo sapiens, UniProt Q9Y2R2); assay: PTPN22 enzyme inhibitors – biochemical, fluorescence, LYP catalytic domain, selectivity assay for LMPTP inhibitor project, dose response (AID 652006); type: functional; conditions: read-out: IC50_Mean
T2 sequence (Q9Y2R2 whole entry): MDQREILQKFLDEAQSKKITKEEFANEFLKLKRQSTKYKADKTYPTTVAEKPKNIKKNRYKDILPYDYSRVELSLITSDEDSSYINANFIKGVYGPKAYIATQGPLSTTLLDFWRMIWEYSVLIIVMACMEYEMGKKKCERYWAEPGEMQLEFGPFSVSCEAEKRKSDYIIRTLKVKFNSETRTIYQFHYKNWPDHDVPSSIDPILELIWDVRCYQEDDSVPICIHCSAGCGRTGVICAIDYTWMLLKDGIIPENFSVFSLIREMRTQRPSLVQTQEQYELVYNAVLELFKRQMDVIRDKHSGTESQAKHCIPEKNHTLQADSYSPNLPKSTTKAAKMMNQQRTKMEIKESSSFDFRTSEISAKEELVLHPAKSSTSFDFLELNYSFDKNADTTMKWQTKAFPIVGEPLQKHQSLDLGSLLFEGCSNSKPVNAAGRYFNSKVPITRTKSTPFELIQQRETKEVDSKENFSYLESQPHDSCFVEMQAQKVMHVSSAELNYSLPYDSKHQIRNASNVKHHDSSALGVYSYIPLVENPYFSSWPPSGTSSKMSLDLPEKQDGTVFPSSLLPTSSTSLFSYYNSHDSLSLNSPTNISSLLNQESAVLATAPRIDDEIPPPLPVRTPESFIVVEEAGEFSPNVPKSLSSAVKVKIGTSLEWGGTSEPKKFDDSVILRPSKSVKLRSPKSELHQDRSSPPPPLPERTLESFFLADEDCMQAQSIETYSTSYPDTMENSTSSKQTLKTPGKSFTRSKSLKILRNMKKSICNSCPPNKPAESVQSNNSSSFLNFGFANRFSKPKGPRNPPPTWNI

[3] = biological target: DNA (cytosine-5)-methyltransferase 1 (Homo sapiens, UniProt P26358); assay: inhibition of DNA methylation by DNMT1 – biochemical, fluorescent molecular beacon, confirmation (AID 602386); type: functional
[4] = biological target: T3, Voltage-gated N-type calcium channel alpha-1B subunit/Amyloid beta A4 precursor protein-binding family A member 1 (Homo sapiens, UniProt Q00975+Q02410); type: protein assay
T3 sequence (Q00975 whole entry): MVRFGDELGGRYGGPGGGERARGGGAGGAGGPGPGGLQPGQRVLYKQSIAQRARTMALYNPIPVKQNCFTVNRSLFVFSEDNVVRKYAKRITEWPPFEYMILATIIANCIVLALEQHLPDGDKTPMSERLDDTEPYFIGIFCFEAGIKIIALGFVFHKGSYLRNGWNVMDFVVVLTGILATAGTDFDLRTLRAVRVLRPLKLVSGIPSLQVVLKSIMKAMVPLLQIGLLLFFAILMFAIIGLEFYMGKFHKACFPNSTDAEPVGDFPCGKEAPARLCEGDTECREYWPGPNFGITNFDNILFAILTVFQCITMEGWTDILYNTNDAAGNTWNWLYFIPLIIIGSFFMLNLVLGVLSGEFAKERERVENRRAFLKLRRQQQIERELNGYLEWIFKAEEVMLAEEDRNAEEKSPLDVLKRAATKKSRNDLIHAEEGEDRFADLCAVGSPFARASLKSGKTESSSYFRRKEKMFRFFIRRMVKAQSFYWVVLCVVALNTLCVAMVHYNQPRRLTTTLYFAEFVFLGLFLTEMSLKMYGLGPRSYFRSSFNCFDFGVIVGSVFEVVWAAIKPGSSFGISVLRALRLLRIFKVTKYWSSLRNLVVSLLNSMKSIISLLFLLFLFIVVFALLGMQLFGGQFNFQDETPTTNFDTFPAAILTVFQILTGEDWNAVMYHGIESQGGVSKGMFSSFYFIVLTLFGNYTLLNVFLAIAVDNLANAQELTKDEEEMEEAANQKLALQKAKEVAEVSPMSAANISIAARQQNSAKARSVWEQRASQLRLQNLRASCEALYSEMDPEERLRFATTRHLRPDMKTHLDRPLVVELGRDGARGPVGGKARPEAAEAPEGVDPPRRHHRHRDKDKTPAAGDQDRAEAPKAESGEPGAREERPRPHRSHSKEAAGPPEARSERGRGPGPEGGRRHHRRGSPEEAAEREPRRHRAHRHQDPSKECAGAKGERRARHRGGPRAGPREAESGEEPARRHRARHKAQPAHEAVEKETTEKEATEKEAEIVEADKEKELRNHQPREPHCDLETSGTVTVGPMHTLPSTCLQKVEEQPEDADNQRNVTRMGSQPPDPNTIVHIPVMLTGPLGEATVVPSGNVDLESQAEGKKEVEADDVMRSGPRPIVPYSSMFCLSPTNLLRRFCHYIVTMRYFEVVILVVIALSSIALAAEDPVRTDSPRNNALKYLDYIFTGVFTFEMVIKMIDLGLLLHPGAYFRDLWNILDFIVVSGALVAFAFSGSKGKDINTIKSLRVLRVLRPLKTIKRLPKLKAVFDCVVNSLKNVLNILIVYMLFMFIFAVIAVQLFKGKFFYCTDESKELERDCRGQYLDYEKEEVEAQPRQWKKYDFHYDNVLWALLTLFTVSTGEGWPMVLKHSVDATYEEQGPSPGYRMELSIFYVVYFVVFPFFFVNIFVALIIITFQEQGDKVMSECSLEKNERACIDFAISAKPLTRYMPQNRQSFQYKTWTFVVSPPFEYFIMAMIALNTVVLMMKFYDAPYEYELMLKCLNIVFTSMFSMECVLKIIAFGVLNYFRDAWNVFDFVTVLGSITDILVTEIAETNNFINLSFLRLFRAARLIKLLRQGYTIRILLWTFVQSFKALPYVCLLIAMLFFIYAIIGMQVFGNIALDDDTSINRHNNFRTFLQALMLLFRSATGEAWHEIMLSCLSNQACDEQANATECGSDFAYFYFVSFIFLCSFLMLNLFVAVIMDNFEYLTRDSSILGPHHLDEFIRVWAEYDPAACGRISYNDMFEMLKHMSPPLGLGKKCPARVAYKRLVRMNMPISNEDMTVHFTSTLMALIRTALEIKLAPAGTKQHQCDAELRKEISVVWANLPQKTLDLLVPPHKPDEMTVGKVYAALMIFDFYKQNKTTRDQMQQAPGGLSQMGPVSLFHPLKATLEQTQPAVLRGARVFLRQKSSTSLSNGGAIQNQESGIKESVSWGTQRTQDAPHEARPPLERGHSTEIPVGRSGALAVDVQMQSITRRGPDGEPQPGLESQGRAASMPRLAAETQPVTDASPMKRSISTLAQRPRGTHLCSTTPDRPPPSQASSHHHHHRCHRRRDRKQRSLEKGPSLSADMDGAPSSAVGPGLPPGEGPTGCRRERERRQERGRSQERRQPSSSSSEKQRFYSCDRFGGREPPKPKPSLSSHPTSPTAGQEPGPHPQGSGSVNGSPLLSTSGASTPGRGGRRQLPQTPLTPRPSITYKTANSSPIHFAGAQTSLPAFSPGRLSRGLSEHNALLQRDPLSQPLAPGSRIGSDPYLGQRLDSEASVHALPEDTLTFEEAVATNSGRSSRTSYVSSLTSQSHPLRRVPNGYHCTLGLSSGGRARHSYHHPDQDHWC
T3 sequence (Q02410 whole entry): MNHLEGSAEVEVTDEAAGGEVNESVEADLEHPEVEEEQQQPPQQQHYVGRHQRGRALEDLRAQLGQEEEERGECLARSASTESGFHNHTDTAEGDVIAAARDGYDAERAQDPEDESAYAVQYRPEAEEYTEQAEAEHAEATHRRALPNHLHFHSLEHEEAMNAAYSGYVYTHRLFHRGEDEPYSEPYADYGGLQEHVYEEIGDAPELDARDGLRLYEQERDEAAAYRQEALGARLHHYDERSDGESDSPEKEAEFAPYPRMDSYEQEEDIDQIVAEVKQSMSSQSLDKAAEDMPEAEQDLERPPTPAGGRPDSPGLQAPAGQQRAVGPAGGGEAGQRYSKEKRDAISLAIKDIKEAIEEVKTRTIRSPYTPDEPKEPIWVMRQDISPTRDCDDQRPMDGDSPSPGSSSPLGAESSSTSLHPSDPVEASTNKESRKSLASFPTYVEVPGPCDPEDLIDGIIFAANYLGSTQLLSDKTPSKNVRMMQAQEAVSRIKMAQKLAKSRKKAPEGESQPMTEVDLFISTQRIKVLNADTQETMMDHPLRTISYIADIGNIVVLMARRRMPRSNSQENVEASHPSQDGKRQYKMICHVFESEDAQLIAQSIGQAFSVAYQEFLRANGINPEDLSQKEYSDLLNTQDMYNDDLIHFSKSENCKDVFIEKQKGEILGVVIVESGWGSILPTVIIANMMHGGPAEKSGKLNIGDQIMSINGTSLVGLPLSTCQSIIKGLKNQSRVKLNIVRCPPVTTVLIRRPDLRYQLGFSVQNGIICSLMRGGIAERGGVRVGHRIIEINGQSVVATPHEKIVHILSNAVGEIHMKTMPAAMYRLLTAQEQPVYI

[5] = biological target: T4, Small ubiquitin-related modifier 1 (Homo sapiens, UniProt P63165); assay: SUMO1 protein interaction blockers, potency – biochemical, fluorescence polarization, uHTS hits, dose response (AID 624382); type: functional; conditions: read-out: IC50_Mean
T4 sequence (P63165 whole entry): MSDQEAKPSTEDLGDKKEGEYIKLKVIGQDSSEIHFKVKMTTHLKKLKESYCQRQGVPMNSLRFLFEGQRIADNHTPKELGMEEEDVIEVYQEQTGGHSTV

[6] = biological target: T4, Small ubiquitin-related modifier 1; assay: SUMO1 protein-protein binding blockers, potency – biochemical, FRET, dose response (AID 624383); type: functional; conditions: read-out: IC50_Mean
[7] = biological target: T3, Voltage-gated N-type calcium channel alpha-1B subunit/Amyloid beta A4 precursor protein-binding family A member 1; type: protein assay; remark: listed apart in the source
[8] = biological target: T5, Carboxy-terminal domain RNA polymerase II polypeptide A small phosphatase 1 (Homo sapiens, UniProt Q9GZU7); assay: CTDSP1 inhibitors, concentration-response, biochemical, absorbance readout, ultra-high-throughput screen actives (AID 540297); type: functional
T5 sequence (Q9GZU7 whole entry): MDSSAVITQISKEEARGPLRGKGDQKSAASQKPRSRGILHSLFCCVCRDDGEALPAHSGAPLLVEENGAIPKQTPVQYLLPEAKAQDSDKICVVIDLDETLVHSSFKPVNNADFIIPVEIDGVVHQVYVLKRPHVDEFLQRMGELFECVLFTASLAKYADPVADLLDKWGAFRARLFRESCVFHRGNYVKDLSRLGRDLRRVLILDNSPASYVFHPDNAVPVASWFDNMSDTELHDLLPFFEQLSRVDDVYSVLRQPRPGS

[9] = biological target: T6, Low molecular weight phosphotyrosine protein phosphatase (Homo sapiens, UniProt P24666); type: functional; conditions: read-out: IC50_Mean;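 also: Dose-response confirmation assay measuring inhibition of LMPTP enzyme activity by fluorescence intensity read-out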
T6 sequence (P24666 whole entry): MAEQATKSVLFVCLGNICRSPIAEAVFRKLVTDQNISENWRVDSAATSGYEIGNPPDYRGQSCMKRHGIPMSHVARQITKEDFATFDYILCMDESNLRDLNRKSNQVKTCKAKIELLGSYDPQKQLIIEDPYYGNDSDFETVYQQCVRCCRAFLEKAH

[10] = biological target: Melanin-concentrating hormone receptor 1 (Homo sapiens, UniProt Q99705); assay: Late-stage fluorescence-based counterscreen for antagonists of the G-protein coupled receptor 7 (GPR7): cell-based dose response assay to identify antagonists of the melanin-concentrating hormone receptor 1 (MCHR1) Set 5.; type: functional
Sequence of Melanin-concentrating hormone receptor 1 (Q99705 whole entry): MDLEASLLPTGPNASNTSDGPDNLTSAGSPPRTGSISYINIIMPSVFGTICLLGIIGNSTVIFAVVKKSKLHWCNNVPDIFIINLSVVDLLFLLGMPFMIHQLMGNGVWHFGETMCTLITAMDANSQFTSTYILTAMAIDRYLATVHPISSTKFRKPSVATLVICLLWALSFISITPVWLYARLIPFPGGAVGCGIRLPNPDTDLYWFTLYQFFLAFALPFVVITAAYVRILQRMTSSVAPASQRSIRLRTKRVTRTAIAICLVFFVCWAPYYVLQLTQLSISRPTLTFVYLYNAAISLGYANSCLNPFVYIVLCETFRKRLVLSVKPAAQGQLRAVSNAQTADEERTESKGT

[11] = biological target: T7, Neuropeptides B/W receptor type 1 (Homo sapiens, UniProt P48145); assay: human NPBW1 receptor blockade, IC50 – cell-based, fluorescence, dose response, set 5, late-stage follow-up (AID 588566); type: functional
T7 sequence (P48145 whole entry): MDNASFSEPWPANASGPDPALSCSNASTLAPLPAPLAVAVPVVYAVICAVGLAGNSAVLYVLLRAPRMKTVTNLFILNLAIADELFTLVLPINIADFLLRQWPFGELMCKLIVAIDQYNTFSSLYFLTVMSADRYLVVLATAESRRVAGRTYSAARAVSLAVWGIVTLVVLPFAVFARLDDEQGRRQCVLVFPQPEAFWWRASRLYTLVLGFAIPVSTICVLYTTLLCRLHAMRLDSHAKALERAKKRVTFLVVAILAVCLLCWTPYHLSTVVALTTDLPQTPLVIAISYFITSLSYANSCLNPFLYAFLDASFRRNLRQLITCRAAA

[12] = THP-1 cell cytotoxicity, cytotoxicity control, set 4 (AID 504911); type: functional; conditions: Mycobacterium tuberculosis
[13] = Vero cell cytotoxicity, cytotoxicity control for M. tuberculosis inhibitor project, purified and synthesized samples, set 3 (AID 504684); type: functional
Fatty acid synthase = Fatty acid synthase (Homo sapiens, UniProt P49327); assay: inhibition of human FAS-TE enzyme activity – biochemical, kinetic fluorescence intensity, dose response (AID 624326); type: functional;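 also: rate of fluorescence rise from hydrolysis of a fluorogenic O-methyl fluorescein ester substrate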
Beta Lactamase = Beta Lactamase (Pseudomonas aeruginosa, UniProt Q932Y6); assay: BLA reporter interference, concentration series – BLA reporter cells, FRET fluorescence, artefact control for NOD2-RIPK2 interaction inhibitor project, dose response (AID 651552); type: functional, cell-based
Sequence of Beta Lactamase (Q932Y6 whole entry, the tested form may be a part): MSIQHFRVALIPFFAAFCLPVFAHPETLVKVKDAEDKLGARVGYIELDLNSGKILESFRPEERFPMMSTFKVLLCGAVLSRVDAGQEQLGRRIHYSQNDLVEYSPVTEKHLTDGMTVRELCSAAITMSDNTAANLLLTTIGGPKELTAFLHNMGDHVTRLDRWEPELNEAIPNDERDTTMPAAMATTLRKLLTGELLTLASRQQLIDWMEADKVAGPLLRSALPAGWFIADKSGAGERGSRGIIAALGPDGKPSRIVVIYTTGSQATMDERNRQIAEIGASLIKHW

[14] = Fluorescence-based cell-based high throughput dose response assay for inhibitors of the interaction of nucleotide-binding oligomerization domain containing 2 (NOD2) and the receptor-interacting serine-threonine kinase 2 (RIPK2).; type: functional; conditions: Homo sapiens
[15] = biological target: Hepatocyte nuclear factor 4-alpha (Homo sapiens, UniProt P41235); type: functional, cell-based;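 also: biochemical luminescence-based dose-response counterscreen measuring inhibition of HNF4 dimerization, run alongside a screen for blockers of ABHD5–perilipin-5 interaction; split luciferase complementation of HNF4 fusion proteins in cell lysate measuring dimerization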
Sequence of Hepatocyte nuclear factor 4-alpha (P41235 whole entry, the tested form may be a part): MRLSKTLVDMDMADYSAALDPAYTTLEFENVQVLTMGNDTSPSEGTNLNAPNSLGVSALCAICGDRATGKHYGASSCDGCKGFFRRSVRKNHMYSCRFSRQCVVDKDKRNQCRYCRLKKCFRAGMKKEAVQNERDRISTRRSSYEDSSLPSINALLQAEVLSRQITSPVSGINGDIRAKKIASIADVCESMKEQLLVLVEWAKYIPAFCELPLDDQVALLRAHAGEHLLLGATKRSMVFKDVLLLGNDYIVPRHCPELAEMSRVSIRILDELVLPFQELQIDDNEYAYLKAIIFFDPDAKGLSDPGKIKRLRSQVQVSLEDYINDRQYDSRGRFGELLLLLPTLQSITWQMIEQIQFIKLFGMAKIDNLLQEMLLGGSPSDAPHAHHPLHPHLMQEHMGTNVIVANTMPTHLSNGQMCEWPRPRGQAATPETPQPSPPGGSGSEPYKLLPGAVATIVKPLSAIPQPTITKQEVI

For Cc1sc2ncnc(NCC(O)c3ccccc3)c2c1C (stereo unspecified), the AC50 (INS1) was 5.29 µM (active) and the IC50 [1] was 20.9 µM (inactive).
With Nc1nccc(-c2ccc(-n3cnc4ccccc43)cc2)n1 the IC50 (Interleukin-8) was 10.2 µM (inactive).
In the case of CCOC(=O)c1cc(-c2ccc(N3CCOCC3)cc2)nn1-c1ccccc1C(=O)O, the IC50 [2] is reported as 8.42 µM (active), the IC50 [3] is reported as 6.99 µM (active) and the IC50 [4] is reported as > 50 µM (inactive). The IC50 [5] was > 66.6 µM (inactive), the IC50 [6] was 1.51 µM (active) and the IC50 [7] was 5.98 µM (active). The IC50 [8] was 5.98 µM (active) and the IC50 [9] was 12.3 µM (active).
In the case of CCOC(=O)Cc1c(Cl)cnn(Cc2cccc3ccccc23)c1=O, the IC50 [10] is reported as 10.9 µM (inactive) and the IC50 [11] is reported as 10.3 µM (inactive).
For N#CC(c1cccnc1)c1c(Cl)cnn(Cc2cccc3ccccc23)c1=O (stereo unspecified), the IC50 [10] was 4.56 µM (active) and the IC50 [11] was 0.975 µM (active).
For Cc1[nH]c(SCc2ccccc2Cl)nc(=O)c1C, the CC50 [12] was > 100 µM (active) and the CC50 [13] was > 100 µM (active).
In the case of CCOC(=O)[C@]12Cc3ccccc3[C@H]1N(C1CCCCC1)C(=O)c1cc(OC)ccc12, the IC50 (Fatty acid synthase) is reported as 8.19 µM (active), the IC50 (Beta Lactamase) is reported as 48 µM (inactive) and the IC50 [14] is reported as 2.28 µM (active).
For CCC(c1nc2ccccc2[nH]1)n1c(=O)c(-c2ccco2)nc2ccccc21 (stereo unspecified), the IC50 [15] was 3.79 µM (active).
